Measured values reported in US12059422B2 (MEI Pharma, Inc., priority 2011, dated 2024).

Legend:
PI3K delta = target: T1, PI3K delta (Homo sapiens, UniProt O00329); assay: Luciferase-based luminescence assay (KinaseGlo), PI3K delta enzymatic activity; format: biochemical; settings: for IC50: inhibition of enzymatic activity, KinaseGlo, 25 μM ATP, read-out: IC50 p110δ; for α/δ ratio: ratio of enzymatic IC50 against PI3Kα over IC50 against PI3Kδ; for β/δ ratio / γ/δ ratio: ratio of enzymatic IC50 values, Table 1
T1 construct: purchased Millipore, Billerica, MA, USA
Description: PI3K catalyzes the conversion of phosphatidylinositol-4,5-bisphosphate (PIP2) and ATP to phosphatidylinositol-3,4,5-trisphosphate (PIP3) and ADP. For all assays, the reaction buffer comprised 50 mM HEPES, pH 7.5, 3 mM MgCl2, 1 mM EGTA, 100 mM NaCl, 0.03% CHAPS and 2 mM DTT. Compounds for testing were dissolved and serially diluted in 100% DMSO (total of 10 concentrations), then diluted 1:25 in reaction buffer.
PI3K alpha and PI3K delta enzymatic activity was determined by measuring the amount of ATP consumed following the kinase reaction using a luciferase-based luminescence assay (KinaseGlo®, Promega Corp., Madison, WI, USA). PI3K enzyme solutions were prepared by diluting PI3K alpha (Invitrogen Corp., Carlsbad, CA, USA) or PI3K delta (Millipore, Billerica, MA, USA) in reaction buffer, to 4× the final assay concentration (final concentrations of enzymes were 1.65 nM and 6.86 nM for PI3K alpha and PI3K delta, respectively). A substrate solution was prepared by mixing PIP2 and ATP in reaction buffer at 2× the final assay concentration (final concentrations were 50 μM and 25 μM for PIP2 and ATP respectively). 2.5 μL each of the compound and kinase mixtures were added to individual wells of white low volume 384-well assay plates and mixed by shaking. The reactions were started by adding 5 μL of substrate mixture per well and shaking. The assay plates were covered and reactions were allowed to proceed for 1 hour (PI3K alpha) or 2 hours (PI3K delta), after which 10 μL of Kinase Glo® reagent was added. The plates were briefly centrifuged and incubated for 10 minutes, after which luminescence was measured using a FlexStation plate reader (Molecular Devices, Sunnyvale, CA, USA). IC50 values were determined by curve fitting using Graphpad Prism software (Graphpad Software, La Jolla, CA, USA).

PI3Kα = PI3Kα (Homo sapiens, UniProt P42336); assay: ELISA assay for PI3Kα: in-cell ELISA, phosphorylation of AKT (Thr308) in MDA-MB-453 cells; format: cell-based; settings: cellular, pAKT (Thr308), IGF-1 stimulation, read-out: IC50 p110α
Description: PI3K alpha (PI3Kα) activity was determined by measuring the phosphorylation of AKT (Thr308) using an in-cell ELISA assay. MDA-MB-453 (breast carcinoma) cells were obtained from ATCC (ATCC #HTB-131). Growth medium was DMEM (CellGro #CV-10-013-CV) supplemented with 10% fetal bovine serum, 100 IU/mL penicillin, 100 μg/mL streptomycin, and 1×MEM non-essential amino acids. Phosphate buffered saline (PBS) contained 2.7 M NaCl, 54 mM KCl, 86 mM […] (dibasic, anhydrous), and 28 mM […] (monobasic, anhydrous) at pH 7.2. Stimulation mixture (10×) was 1000 ng/mL LONG® R^3 human IGF-1 (Sigma #I1271) diluted in serum-free DMEM medium (CellGro #CV-10-013-CV). Compounds for testing were dissolved and serially diluted in 100% DMSO (total of 10 concentrations), then diluted in serum-free DMEM to 2× final assay concentration. Fixative solution (2×) was 8% formaldehyde (Amresco #M134) diluted in PBS. Permeabilization solution was PBS supplemented with 0.1% Triton X-100. Blocking buffer was obtained from LiCor (LiCor #927-40000). Wash buffer was PBS supplemented with 0.1% Tween-20. Primary antibody solution was rabbit anti-pAKT^T308 monoclonal antibody (Cell Signaling #2965) and mouse anti-total S6 (Santa Cruz #74459) diluted 1:500 and 1:2000, respectively, in the blocking buffer. Secondary antibody solution was IRDye 800CW-conjugated goat anti-rabbit IgG (LiCor #926-32211) and IRDye 680LT-conjugated goat anti-mouse IgG (LiCor #926-68020) diluted 1:1000 and 1:2000, respectively, in the blocking buffer.
MDA-MB-453 cells were subcultured in growth medium and seeded into flat, clear bottom, 96-well plates (Corning #3904) at 40000 cells/well, then incubated overnight in a 5% CO2 incubator at 37° C. Growth medium in plates was replaced with 100 μL/well serum-free DMEM and incubated overnight at 37° C. in a 5% CO2 incubator. Fresh serum-free DMEM (50 μL/well) was added to plates. Compound treatment was performed by adding 50 μL/well of 2× compound mixture to plates and incubating for 1 hr at 37° C. and 5% CO2, after which 11 μL/well of 10× stimulation mixture was added and plates were incubated for 10 min at 37° C. and 5% CO2. Fixation was performed by adding 110 μL/well of 2× fixative solution to the plates and incubating for 20 min at room temperature. Permeabilization was performed by replacing fixation solution with 150 μL/well permeabilization solution and incubating for 10 min at room temperature. Permeabilization was repeated (for a total of 2 times). Permeabilization solution was replaced with 100 μL/well blocking buffer and plates were incubated for 1 hour at room temperature, after which 100 μL/well of primary antibody solution was added and plates were incubated overnight at 4° C. Plates were washed with wash buffer, after which 100 μL/well of secondary antibody solution was added to the plates and incubated in the dark for 1 hr at room temperature. Plates were washed with wash buffer, followed by a wash with PBS. After completely removing PBS, plates were scanned on the Licor Odyssey Imager. Images were quantified using Licor Odyssey application software. IC50 values were determined by curve fitting using a Collaborative Drug Discovery database (www.collaborativedrug.com).

T1 sequence (O00329 whole entry, species assumed): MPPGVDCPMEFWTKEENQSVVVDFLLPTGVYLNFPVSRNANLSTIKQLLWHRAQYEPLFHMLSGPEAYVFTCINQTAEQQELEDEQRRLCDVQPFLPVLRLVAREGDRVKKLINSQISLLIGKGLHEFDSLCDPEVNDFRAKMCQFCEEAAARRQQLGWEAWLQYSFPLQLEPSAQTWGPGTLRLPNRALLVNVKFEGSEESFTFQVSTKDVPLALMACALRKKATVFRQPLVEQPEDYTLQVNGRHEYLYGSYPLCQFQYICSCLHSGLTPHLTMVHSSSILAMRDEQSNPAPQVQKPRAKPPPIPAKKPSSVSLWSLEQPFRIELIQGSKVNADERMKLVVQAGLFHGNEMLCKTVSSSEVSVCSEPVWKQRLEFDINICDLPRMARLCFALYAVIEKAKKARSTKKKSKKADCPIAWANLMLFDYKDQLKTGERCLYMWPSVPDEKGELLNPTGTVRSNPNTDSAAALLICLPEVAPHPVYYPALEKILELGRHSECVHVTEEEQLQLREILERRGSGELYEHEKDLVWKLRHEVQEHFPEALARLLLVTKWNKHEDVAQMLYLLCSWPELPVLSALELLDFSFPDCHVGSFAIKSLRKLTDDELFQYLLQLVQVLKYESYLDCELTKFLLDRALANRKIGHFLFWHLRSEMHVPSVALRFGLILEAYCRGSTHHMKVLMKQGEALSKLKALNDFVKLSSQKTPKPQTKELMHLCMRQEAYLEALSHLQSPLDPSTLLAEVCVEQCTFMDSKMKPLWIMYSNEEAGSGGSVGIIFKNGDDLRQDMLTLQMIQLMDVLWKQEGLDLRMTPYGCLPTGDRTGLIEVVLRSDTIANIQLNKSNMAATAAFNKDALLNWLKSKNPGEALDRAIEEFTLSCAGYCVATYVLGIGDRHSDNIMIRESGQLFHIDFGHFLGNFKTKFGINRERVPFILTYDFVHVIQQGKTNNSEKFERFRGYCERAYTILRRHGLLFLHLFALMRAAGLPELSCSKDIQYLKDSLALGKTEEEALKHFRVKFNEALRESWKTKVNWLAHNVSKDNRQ
T1 sequence (P27986 whole entry partner, species assumed): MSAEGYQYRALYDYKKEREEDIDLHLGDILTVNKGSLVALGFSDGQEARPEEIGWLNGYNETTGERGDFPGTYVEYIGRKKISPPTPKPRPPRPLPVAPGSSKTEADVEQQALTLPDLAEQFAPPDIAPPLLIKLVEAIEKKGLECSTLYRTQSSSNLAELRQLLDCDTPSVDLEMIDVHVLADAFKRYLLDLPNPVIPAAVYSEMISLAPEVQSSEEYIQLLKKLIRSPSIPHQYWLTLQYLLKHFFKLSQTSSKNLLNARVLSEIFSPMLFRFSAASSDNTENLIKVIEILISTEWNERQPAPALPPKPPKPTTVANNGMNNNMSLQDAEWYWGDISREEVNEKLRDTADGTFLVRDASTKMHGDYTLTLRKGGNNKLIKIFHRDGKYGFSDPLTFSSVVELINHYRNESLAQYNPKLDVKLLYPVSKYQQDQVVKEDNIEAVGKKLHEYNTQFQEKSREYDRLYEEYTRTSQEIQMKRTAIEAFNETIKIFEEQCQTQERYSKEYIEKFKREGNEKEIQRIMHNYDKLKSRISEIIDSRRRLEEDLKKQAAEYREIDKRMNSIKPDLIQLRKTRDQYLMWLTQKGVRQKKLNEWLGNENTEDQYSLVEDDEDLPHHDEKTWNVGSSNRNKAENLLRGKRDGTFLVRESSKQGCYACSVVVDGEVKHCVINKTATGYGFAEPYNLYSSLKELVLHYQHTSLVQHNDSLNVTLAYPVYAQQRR
Chain of PI3Kα (P27986 2-724): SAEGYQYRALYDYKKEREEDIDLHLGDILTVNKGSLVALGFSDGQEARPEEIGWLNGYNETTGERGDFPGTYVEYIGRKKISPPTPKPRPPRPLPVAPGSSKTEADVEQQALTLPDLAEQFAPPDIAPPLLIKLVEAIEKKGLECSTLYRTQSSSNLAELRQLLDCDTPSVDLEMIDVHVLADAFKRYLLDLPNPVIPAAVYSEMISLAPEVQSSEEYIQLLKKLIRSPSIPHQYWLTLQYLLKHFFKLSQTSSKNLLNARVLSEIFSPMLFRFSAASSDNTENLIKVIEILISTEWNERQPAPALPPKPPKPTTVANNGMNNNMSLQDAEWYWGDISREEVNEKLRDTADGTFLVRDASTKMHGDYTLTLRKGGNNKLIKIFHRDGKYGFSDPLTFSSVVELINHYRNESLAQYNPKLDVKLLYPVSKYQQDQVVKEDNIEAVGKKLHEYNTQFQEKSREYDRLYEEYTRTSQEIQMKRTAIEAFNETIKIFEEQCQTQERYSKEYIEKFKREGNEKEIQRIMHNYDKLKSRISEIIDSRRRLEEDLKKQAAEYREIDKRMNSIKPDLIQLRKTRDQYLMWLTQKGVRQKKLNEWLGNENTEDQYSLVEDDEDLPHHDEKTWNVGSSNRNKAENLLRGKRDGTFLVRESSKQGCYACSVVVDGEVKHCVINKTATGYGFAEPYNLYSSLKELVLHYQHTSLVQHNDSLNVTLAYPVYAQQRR
Chain of PI3Kα (P42336 whole entry): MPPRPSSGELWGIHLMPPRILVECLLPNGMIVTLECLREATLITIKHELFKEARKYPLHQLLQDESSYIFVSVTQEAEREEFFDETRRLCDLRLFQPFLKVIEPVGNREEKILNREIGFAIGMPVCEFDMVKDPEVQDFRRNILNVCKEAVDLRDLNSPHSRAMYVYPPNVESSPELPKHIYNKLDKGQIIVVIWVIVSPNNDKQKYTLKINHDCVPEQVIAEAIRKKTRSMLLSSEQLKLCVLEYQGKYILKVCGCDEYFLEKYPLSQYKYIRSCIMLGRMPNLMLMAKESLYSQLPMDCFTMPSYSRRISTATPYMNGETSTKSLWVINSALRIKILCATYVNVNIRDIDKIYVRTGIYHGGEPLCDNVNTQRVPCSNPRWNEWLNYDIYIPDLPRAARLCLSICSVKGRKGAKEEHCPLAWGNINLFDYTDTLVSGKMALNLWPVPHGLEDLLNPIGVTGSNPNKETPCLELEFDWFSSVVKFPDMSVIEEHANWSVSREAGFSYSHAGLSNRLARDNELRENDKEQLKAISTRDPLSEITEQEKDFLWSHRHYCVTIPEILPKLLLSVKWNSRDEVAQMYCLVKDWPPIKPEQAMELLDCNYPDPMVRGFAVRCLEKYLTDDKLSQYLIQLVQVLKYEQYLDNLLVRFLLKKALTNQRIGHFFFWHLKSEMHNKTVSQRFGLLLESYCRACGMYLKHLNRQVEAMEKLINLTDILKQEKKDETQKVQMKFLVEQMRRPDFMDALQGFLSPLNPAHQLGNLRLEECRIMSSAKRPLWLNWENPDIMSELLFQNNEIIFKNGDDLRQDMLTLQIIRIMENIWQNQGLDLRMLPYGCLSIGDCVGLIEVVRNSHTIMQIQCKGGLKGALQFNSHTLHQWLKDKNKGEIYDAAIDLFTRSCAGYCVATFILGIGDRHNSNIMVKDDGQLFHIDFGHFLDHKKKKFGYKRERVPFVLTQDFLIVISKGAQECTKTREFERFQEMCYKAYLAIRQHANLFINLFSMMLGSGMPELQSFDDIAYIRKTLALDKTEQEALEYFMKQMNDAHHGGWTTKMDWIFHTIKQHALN

Row | SMILES | IC50 (PI3K delta) | α/δ ratio (PI3K delta) | β/δ ratio (PI3K delta) | γ/δ ratio (PI3K delta) | IC50 (PI3Kα)
1 | CC(C)(Cc1ccccc1)Nc1nc(N2CCOCC2)nc(-n2c(C(F)F)nc3ccccc32)n1 [Compound A14, 4-(2-(difluoromethyl)-1H-benzo[d]imidazol-1-yl)-N-(2-methyl-1-phenylpropan-2-yl)-6-morpholino-1,3,5-triazin-2-amine] | ≤ 100 nM | A’ | D’ | A’ | > 500 nM
2 | CC(C)(Cc1ccccc1F)Nc1nc(N2CCOCC2)nc(-n2c(C(F)F)nc3ccccc32)n1 [Compound A15, 4-(2-(difluoromethyl)-1H-benzo[d]imidazol-1-yl)-N-(1-(2-fluorophenyl)-2-methylpropan-2-yl)-6-morpholino-1,3,5-triazin-2-amine] | ≤ 100 nM | A’ | C’ | A’ | > 500 nM
3 | CC(C)(Cc1ccccc1Cl)Nc1nc(N2CCOCC2)nc(-n2c(C(F)F)nc3ccccc32)n1 [Compound A16, 4-(2-(difluoromethyl)-1H-benzo[d]imidazol-1-yl)-N-(1-(2-chlorophenyl)-2-methylpropan-2-yl)-6-morpholino-1,3,5-triazin-2-amine] | ≤ 100 nM | A’ | D’ | C’ | > 500 nM
4 | Cc1ccccc1CC(C)(C)Nc1nc(N2CCOCC2)nc(-n2c(C(F)F)nc3ccccc32)n1 [Compound A18, 4-(2-(difluoromethyl)-1H-benzo[d]imidazol-1-yl)-N-(2-methyl-1-(o-tolyl)propan-2-yl)-6-morpholino-1,3,5-triazin-2-amine] | ≤ 100 nM | A’ | D’ | B’ | > 500 nM
5 | COc1ccccc1CC(C)(C)Nc1nc(N2CCOCC2)nc(-n2c(C(F)F)nc3ccccc32)n1 [Compound A19, 4-(2-(difluoromethyl)-1H-benzo[d]imidazol-1-yl)-N-(1-(2-methoxyphenyl)-2-methylpropan-2-yl)-6-morpholino-1,3,5-triazin-2-amine] | ≤ 100 nM | B’ | B’ | B’ | 
6 | COc1cccc(CC(C)(C)Nc2nc(N3CCOCC3)nc(-n3c(C(F)F)nc4ccccc43)n2)c1 [Compound A21, 4-(2-(difluoromethyl)-1H-benzo[d]imidazol-1-yl)-N-(1-(3-methoxyphenyl)-2-methylpropan-2-yl)-6-morpholino-1,3,5-triazin-2-amine] | ≤ 100 nM | A’ | B’ | A’ | > 500 nM
7 | CC(C)(Cc1ccc(F)cc1)Nc1nc(N2CCOCC2)nc(-n2c(C(F)F)nc3ccccc32)n1 [Compound A22, 4-(2-(difluoromethyl)-1H-benzo[d]imidazol-1-yl)-N-(1-(4-fluorophenyl)-2-methylpropan-2-yl)-6-morpholino-1,3,5-triazin-2-amine] | ≤ 100 nM | A’ | C’ | A’ | > 500 nM
8 | CC(C)(Cc1cccc2ccccc12)Nc1nc(N2CCOCC2)nc(-n2c(C(F)F)nc3ccccc32)n1 [Compound A27, 4-(2-(difluoromethyl)-1H-benzo[d]imidazol-1-yl)-N-(2-methyl-1-(naphthalen-1-yl)propan-2-yl)-6-morpholino-1,3,5-triazin-2-amine] | ≤ 100 nM | A’ | D’ | D’ | 
9 | CC(C)(Cc1ccccc1-c1ccncc1)Nc1nc(N2CCOCC2)nc(-n2c(C(F)F)nc3ccccc32)n1 [Compound A33, 4-(2-(difluoromethyl)-1H-benzo[d]imidazol-1-yl)-N-(2-methyl-1-(2-(pyridin-4-yl)phenyl)propan-2-yl)-6-morpholino-1,3,5-triazin-2-amine] | ≤ 100 nM | A’ | D’ | A’ | 
10 | CN1CCC(c2ccccc2CC(C)(C)Nc2nc(N3CCOCC3)nc(-n3c(C(F)F)nc4ccccc43)n2)CC1 [Compound A35, 4-(2-(difluoromethyl)-1H-benzo[d]imidazol-1-yl)-N-(2-methyl-1-(2-(1-methylpiperidin-4-yl)phenyl)propan-2-yl)-6-morpholino-1,3,5-triazin-2-amine] | ≤ 100 nM | A’ | A’ | A’ | > 500 nM
11 | CC(C)(Cc1cccc(F)c1)Nc1nc(N2CCOCC2)nc(-n2c(C(F)F)nc3ccccc32)n1 [Compound A39, 4-(2-(difluoromethyl)-1H-benzo[d]imidazol-1-yl)-N-(1-(3-fluorophenyl)-2-methylpropan-2-yl)-6-morpholino-1,3,5-triazin-2-amine] | ≤ 100 nM | A’ | D’ | B’ | > 500 nM
12 | CC(C)(Cc1ccccc1-c1cccnc1)Nc1nc(N2CCOCC2)nc(-n2c(C(F)F)nc3ccccc32)n1 [Compound A40, 4-(2-(difluoromethyl)-1H-benzo[d]imidazol-1-yl)-N-(2-methyl-1-(2-(pyridin-3-yl)phenyl)propan-2-yl)-6-morpholino-1,3,5-triazin-2-amine] | ≤ 100 nM | A’ | D’ | A’ | > 500 nM
13 | COc1cc(-c2ccccc2CC(C)(C)Nc2nc(N3CCOCC3)nc(-n3c(C(F)F)nc4ccccc43)n2)ccn1 [Compound A41, 4-(2-(difluoromethyl)-1H-benzo[d]imidazol-1-yl)-N-(1-(2-(2-methoxypyridin-4-yl)phenyl)-2-methylpropan-2-yl)-6-morpholino-1,3,5-triazin-2-amine] | ≤ 100 nM | A’ | A’ | A’ | > 500 nM
14 | CN1CCC(c2ccccc2CC(C)(C)Nc2nc(N3CCOCC3)nc(-n3c(C(F)F)nc4ccccc43)n2)C1 (stereo not drawn) [Compound A75, 4-(2-(difluoromethyl)-1H-benzo[d]imidazol-1-yl)-N-(2-methyl-1-(2-(1-methylpyrrolidin-3-yl)phenyl)propan-2-yl)-6-morpholino-1,3,5-triazin-2-amine] |  |  |  |  | > 500 nM
